According to patent US8148388B2, “2,4 (4,6) pyrimidine derivatives” (Janssen Pharmaceutica, N.V., priority 2004, dated 2012):

Columns and labels:
Format in all cases: biochemical
[1] = target: Flt3 (h) (Homo sapiens, UniProt P36888); assay: Flt3 human kinase assay (glass-fiber filter); settings: test concentration of 10^−6M; for inhibition at 1 µM: read-out: C6 score (inhibition of Flt3 human)
Method: (§1) The in vitro inhibition of a panel of kinases was assessed using either the glass-fiber filter technology as described by Davies, S. P. et al., Biochem J. (2000), 351; p. 95-105.
(§2) In the glass-fiber filter technology the activity of the kinase of interest is measured using an appropriate substrate that is incubated with the aforementioned kinase protein in the presence of (^33P) radiolabeled ATP. (^33P) Phosphorylation of the substrate is subsequently measured as radioactivity bound on a glass fiber-filter.
(§3) All kinases are pre-diluted to a 10× working concentration prior to addition into the assay. The composition of the dilution buffer for each kinase is detailed below.
(§4) In a final reaction volume of 25 μl, Flt3 (h) (5-10 mU) is incubated with 8 mM MOPS pH 7.0, 0.2 mM EDTA, 50 μM […], 10 mM MgAcetate and [γ-^33P-ATP] (specific activity approx. 500 cpm/pmol, concentration as required). The reaction is initiated by the addition of the MgATP mix. After incubation for 40 minutes at room temperature, the reaction is stopped by the addition of 5 μl of a 3% phosphoric acid solution. 10 μl of the reaction is then spotted onto a P30 filtermat and washed three times for 5 minutes in 75 mM phosphoric acid and once in methanol prior to drying and scintillation counting.

[2] = target: Yes (h) (Homo sapiens, UniProt P07947); assay: Yes human kinase assay (glass-fiber filter); settings: test concentration of 10^−6M; for inhibition at 1 µM: read-out: C11 score (inhibition of Yes human)
Method: as §2, §3
(§5) In a final reaction volume of 25 μl, Yes (h) (5-10 mU) is incubated with 8 mM MOPS pH 7.0, 0.2 mM EDTA, 0.1 mg/ml poly(Glu, Tyr) 4:1, 10 mM MgAcetate and [γ-^33P-ATP] (specific activity approx. 500 cpm/μmol, concentration as required). The reaction is initiated by the addition of the MgATP mix. After incubation for 40 minutes at room temperature, the reaction is stopped by the addition of 5 μl of a 3% phosphoric acid solution. 10 μl of the reaction is then spotted onto a Filtermat A and washed three times for 5 minutes in 75 mM phosphoric acid and once in methanol prior to drying and scintillation counting.

[3] = target: Lck (h) (Homo sapiens, UniProt P06239); assay: Lck human kinase assay (glass-fiber filter); settings: test concentration of 10^−6M; for inhibition at 1 µM: read-out: C9 score (inhibition of Lck human)
Method: (§6) The in vitro inhibition of a panel of kinases was assessed using either the glass-fiber filter technology as described by Davies, S. P. et al., Biochem J. […] In the glass-fiber filter technology the activity of the kinase of interest is measured using an appropriate substrate that is incubated with the aforementioned kinase protein in the presence of (^33P) radiolabeled ATP. (^33P) Phosphorylation of the substrate is subsequently measured as radioactivity bound on a glass fiber-filter. All kinases are pre-diluted to a 10× working concentration prior to addition into the assay. The composition of the dilution buffer for each kinase is detailed below. [table] […] The reaction is initiated by the addition of the MgATP mix. […] 10 μl of the reaction is then spotted onto a P30 filtermat and washed three times for 5 minutes in 75 mM phosphoric acid and once in methanol prior to drying and scintillation counting.

[4] = target: Fms (h) (Homo sapiens, UniProt P07333); assay: Fms human kinase assay (glass-fiber filter); settings: test concentration of 10^−6M; read-out: C7 score (inhibition of Fms human)
Method: as §1, §2, §3
as §4, with “μl, Fms” for “μl, Flt3”, “EDTA, 250” for “EDTA, 50”

[5] = target: Fes (h) (Homo sapiens, UniProt P07332); assay: Fes human kinase assay (glass-fiber filter); settings: test concentration of 10^−6M; for inhibition at 1 µM: read-out: C4 score (inhibition of Fes human)
Method: as §2, §3
as §5, with “Fes” for “Yes”, “cpm/pmol,” for “cpm/μmol,”

[6] = target: Abl (h) (Homo sapiens, UniProt P00519); assay: Abl human kinase assay (glass-fiber filter); settings: test concentration of 10^−6M; for inhibition at 1 µM: read-out: C1 score (inhibition of Abl human)
Method: as §2, §3
(specific activity approx. 500 cpm/pmol, concentration as required). The reaction is initiated by the addition of the MgATP mix. After incubation for 40 minutes at room temperature, the reaction is stopped by the addition of 5 μl of a 3% phosphoric acid solution. 10 μl of the reaction is then spotted onto a P30 filtermat and washed three times for 5 minutes in 75 mM phosphoric acid and once in methanol prior to drying and scintillation counting.

[7] = target: Lyn (h) (Homo sapiens, UniProt P07948); assay: Lyn human kinase assay (glass-fiber filter); settings: test concentration of 10^−6M; for inhibition at 1 µM: read-out: C10 score (inhibition of Lyn human)
Method: as §2, §3
In a final reaction volume of […] (h) (5-10 mU) is incubated with 50 mM Tris pH 7.5, 0.1 mM EGTA, 0.1 mM Na3VO4, 0.1% O-mercaptoethanol, 0.1 mg/ml poly(Glu, Tyr) 4:1, 10 mM MgAcetate and [γ-^33P-ATP] (specific activity approx. 500 cpm/pmol, concentration as required). The reaction is initiated by the addition of the MgATP mix. After incubation for 40 minutes at room temperature, the reaction is stopped by the addition of 5 μl of a 3% phosphoric acid solution. 10 μl of the reaction is then spotted onto a Filtennat A and washed three times for 5 minutes in 75 mM phosphoric acid and once in methanol prior to drying and scintillation counting.

[8] = target: GSK3B (h) (Homo sapiens, UniProt P49841); assay: GSK3β human kinase assay (glass-fiber filter); settings: test concentration of 10^−6M; for inhibition at 1 µM: read-out: C8 score (inhibition of GSK3β human)
Method: as §1, §2, §3
In a final reaction volume of 25 μl, GSK3B (h) (5-10 mU) is incubated with 8 mM MOPS pH 7.0, 0.2 mM EDTA, 20 μM […](p)EDEEE (phospho GS2 peptide), 10 mM MgAcetate and [γ-^33P-ATP] (specific activity approx. 500 cpm/pmol, concentration as required). The reaction is initiated by the addition of the MgATP mix. After incubation for 40 minutes at room temperature, the reaction is stopped by the addition of 5 μl of a 3% phosphoric acid solution. 10 μl of the reaction is then spotted onto a P30 filtermat and washed three times for 5 minutes in 50 mM phosphoric acid and once in methanol prior to drying and scintillation counting.

[9] = target: cSRC (h) (Homo sapiens, UniProt P12931); assay: cSRC human kinase assay (glass-fiber filter); settings: test concentration of 10^−6M; for inhibition at 1 µM: read-out: C3 score (inhibition of cSRC human)
Method: as §6, with “below.” for “below. [table]”

[10] = target: EGFR (h) (Homo sapiens, UniProt P00533); assay: EGFR human kinase assay (glass-fiber filter); settings: test concentration of 10^−6M; for inhibition at 1 µM: read-out: C4 score (inhibition of EGFR human)
Method: as §2, §3
as §5, with “EGFR” for “Yes”, “EDTA, 10 mM MnCl2,” for “EDTA,”, “cpm/pmol,” for “cpm/μmol,”

Lck (h), sequence (P06239 whole entry): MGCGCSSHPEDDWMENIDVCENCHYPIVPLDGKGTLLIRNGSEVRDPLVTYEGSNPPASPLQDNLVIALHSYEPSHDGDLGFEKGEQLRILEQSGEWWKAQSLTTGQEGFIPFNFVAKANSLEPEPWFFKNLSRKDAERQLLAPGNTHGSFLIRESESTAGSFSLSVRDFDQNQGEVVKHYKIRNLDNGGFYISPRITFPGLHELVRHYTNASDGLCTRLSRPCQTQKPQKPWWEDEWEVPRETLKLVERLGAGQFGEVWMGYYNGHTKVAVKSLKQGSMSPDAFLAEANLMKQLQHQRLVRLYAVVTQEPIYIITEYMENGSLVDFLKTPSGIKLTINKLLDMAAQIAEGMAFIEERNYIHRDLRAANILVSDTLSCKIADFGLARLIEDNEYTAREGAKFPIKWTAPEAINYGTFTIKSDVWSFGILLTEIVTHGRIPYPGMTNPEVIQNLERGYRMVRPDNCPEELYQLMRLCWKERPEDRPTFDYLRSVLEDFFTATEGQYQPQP
Fms (h), sequence (P07333 20-972): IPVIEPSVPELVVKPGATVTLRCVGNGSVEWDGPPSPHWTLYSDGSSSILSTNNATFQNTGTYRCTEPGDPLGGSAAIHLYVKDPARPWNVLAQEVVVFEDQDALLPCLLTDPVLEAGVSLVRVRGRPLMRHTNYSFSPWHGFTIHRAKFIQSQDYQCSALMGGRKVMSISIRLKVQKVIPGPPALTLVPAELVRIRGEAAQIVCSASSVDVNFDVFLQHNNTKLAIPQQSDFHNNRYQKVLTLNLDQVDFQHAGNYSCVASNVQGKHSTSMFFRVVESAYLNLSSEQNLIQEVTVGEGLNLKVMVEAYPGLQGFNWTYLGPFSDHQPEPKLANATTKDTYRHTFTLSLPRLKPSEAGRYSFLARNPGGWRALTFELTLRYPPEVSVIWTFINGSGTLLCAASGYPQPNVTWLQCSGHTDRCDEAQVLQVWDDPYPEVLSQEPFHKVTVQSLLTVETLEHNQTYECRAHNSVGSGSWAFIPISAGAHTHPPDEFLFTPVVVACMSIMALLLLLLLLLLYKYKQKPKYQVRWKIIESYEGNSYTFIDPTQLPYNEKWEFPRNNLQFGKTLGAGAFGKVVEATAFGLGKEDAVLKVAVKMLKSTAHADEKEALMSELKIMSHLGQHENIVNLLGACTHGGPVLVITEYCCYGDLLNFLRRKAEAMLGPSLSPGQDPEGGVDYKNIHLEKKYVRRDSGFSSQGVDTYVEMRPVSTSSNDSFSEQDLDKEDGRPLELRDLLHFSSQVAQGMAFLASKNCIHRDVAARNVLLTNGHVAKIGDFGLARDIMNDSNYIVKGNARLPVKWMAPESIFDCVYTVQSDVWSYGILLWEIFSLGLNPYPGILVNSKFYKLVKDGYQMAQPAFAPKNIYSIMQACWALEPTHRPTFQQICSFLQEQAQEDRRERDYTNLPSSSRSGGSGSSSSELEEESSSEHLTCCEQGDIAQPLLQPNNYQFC
GSK3B (h), sequence (P49841 whole entry): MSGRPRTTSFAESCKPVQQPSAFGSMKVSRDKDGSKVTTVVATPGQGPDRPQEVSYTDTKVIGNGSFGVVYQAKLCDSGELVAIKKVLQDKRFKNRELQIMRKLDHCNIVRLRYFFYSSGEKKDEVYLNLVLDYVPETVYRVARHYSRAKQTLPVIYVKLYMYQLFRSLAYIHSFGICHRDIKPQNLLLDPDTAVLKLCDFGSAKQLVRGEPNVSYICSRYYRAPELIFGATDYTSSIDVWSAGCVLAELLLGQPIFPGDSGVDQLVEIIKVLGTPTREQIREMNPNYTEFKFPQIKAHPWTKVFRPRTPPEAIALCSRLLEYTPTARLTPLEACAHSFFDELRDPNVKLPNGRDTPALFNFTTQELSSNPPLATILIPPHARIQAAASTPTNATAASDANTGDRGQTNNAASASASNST
Lyn (h), sequence (P07948 whole entry): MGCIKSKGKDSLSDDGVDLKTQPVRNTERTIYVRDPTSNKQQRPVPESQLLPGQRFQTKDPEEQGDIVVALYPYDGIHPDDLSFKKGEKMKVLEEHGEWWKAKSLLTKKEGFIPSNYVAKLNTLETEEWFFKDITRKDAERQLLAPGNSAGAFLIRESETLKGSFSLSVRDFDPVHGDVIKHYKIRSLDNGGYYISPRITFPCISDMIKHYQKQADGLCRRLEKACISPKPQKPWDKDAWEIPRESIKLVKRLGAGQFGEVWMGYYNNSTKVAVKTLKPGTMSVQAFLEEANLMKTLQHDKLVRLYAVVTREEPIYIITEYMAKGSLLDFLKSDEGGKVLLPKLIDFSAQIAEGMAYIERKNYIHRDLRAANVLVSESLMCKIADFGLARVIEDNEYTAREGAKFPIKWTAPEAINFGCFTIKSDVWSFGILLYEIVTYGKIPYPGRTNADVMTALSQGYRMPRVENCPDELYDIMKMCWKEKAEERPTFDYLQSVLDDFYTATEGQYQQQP
Fes (h), sequence (P07332 whole entry): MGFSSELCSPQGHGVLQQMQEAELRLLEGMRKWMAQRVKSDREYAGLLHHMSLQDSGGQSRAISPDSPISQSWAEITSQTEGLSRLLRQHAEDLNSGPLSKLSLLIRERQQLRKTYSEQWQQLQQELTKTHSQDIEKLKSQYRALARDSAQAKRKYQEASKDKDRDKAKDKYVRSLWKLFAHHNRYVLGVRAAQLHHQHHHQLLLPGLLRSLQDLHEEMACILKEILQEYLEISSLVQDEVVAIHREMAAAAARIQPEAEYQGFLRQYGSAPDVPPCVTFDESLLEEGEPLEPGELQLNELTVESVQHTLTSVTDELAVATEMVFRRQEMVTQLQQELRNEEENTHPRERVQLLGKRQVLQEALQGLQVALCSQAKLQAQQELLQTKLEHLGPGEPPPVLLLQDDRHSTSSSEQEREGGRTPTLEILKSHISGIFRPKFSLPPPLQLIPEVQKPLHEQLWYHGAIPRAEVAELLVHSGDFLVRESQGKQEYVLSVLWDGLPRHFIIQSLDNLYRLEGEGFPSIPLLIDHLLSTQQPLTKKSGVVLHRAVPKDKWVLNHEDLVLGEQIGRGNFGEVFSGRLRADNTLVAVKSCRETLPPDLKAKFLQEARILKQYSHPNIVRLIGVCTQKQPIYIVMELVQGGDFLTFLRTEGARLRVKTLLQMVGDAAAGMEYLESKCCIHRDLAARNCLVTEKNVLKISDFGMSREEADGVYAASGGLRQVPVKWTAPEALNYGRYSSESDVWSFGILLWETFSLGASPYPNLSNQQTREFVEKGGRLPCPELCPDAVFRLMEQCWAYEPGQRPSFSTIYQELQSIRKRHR
cSRC (h), sequence (P12931 whole entry): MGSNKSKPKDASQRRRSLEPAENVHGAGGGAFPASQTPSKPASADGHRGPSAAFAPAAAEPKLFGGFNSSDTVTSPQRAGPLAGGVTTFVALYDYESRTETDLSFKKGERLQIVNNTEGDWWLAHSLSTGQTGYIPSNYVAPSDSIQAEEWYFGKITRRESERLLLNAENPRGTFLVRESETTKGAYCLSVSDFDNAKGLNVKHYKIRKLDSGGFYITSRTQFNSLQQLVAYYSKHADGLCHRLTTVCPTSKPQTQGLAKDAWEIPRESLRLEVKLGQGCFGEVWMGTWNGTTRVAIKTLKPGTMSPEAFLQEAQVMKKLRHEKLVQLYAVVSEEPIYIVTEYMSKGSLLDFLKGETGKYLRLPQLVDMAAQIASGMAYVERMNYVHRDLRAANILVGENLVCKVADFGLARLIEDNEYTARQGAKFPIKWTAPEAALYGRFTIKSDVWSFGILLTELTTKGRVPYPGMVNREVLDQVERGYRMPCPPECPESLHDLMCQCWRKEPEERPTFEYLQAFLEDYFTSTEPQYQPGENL
Abl (h), sequence (P00519 whole entry): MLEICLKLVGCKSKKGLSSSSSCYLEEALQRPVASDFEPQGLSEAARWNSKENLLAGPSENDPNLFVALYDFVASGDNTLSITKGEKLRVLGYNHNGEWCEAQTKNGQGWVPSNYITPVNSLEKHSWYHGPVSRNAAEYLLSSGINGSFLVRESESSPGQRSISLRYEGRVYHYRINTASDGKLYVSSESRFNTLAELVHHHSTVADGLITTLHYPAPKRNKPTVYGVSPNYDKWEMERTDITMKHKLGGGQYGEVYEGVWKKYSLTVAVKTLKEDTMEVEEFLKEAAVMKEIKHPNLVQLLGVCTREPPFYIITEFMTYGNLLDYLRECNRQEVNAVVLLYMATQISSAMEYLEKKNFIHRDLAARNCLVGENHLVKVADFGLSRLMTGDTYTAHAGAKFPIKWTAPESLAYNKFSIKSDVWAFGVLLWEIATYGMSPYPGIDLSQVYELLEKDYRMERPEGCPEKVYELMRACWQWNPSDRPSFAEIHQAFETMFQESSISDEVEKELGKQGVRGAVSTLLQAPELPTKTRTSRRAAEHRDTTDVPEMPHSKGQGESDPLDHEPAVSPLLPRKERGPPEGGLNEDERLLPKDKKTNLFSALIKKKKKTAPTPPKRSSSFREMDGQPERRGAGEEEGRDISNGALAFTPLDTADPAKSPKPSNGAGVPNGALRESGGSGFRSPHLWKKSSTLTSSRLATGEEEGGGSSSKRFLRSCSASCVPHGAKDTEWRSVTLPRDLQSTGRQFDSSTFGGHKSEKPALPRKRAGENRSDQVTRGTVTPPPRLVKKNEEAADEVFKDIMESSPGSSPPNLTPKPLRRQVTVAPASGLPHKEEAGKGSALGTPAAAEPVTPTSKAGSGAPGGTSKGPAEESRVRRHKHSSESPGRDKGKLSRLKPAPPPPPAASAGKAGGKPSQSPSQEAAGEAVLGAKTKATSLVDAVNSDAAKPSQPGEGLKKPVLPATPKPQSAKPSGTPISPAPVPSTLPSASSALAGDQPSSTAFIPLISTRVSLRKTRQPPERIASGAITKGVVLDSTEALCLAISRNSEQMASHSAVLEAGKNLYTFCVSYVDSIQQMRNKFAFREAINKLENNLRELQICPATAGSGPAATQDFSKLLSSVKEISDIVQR

Compound | inhibition at 1 µM [1] [%] | inhibition at 1 µM [2] [%] | inhibition at 1 µM [3] [%] | inhibition at 1 µM [4] [%] | inhibition at 1 µM [5] [%] | inhibition at 1 µM [6] [%] | inhibition at 1 µM [7] [%] | inhibition at 1 µM [8] [%] | inhibition at 1 µM [9] [%] | C6 score (inhibition of Flt3 human) [1] | C11 score (inhibition of Yes human) [2] | C9 score (inhibition of Lck human) [3] | C4 score (inhibition of EGFR human) [10] | C4 score (inhibition of Fes human) [5] | C10 score (inhibition of Lyn human) [7] | C8 score (inhibition of GSK3β human) [8] | C3 score (inhibition of cSRC human) [9] | inhibition at 1 µM [10] [%] | C1 score (inhibition of Abl human) [6]
N#Cc1cnc2nc1Nc1cccc(c1)OCCCCOc1cccc(c1)N2 [Compound 2, 14,19-dioxa-2,4,8,26-tetraazatetracyclo[18.3.1.1˜3,7˜.1˜9,13˜]hexacosa-1(24),3,5,7(26),9,11,13(25),20,22-nonaene-6-carbonitrile] | > 80 | 30 to 60 | 30 to 60 | 30 to 60 | 10 to 30 | 10 to 30 | 10 to 30 | 60 to 80 | 30 to 60 | – | – | – | – | – | – | – | – | – | –
COc1ccc2cc1OCCCNC(=O)[C@@H]1CCCN1Cc1cc(F)c(Cl)cc1Nc1nc(ncc1C#N)N2 [Compound 6, 21,17-metheno-15,11-nitrilo-1H,16H-pyrrolo[2,1-s][13,1,5,7,17,20]benzoxapentaazacyclotricosine-12-carbonitrile, 8-chloro-7-fluoro-2,3,5,10,23,24,25,26,27,27a-decahydro-20-methoxy-27-oxo-, (27aS)-] | – | – | – | – | – | – | – | – | – | 2 (Score 2=30-60% inhibition) | 2 (Score 2=30-60% inhibition) | 2 (Score 2=30-60% inhibition) | 1 (Score 1=10-30% inhibition) | 1 (Score 1=10-30% inhibition) | 1 (Score 1=10-30% inhibition) | 2 (Score 2=30-60% inhibition) | 1 (Score 1=10-30% inhibition) | – | –
O=C1NCCCCOc2cccc(c2)Nc2ccnc(n2)Nc2cccc1c2 [Compound 19, 14-oxa-2,4,8,19,27-pentaazatetracyclo[19.3.1.1~3,7~.1~9,13~]heptacosa-1(25),3,5,7(27),9,11,13(26),21,23-nonaen-20-one] | 30 to 60 | 30 to 60 | 30 to 60 | 10 to 30 | – | 10 to 30 | 10 to 30 | 10 to 30 | 10 to 30 | – | – | – | – | – | – | – | – | 10 to 30 | –
N#Cc1cnc2nc1Nc1cccc(c1)OCC(=O)NCCOc1cccc(c1)N2 [Compound 27, 14,20-dioxa-2,4,8,17,27-pentaazatetracyclo[19.3.1.1~3,7~.1~9,13~]heptacosa-1(25),3,5,7(27),9,11,13(26),21,23-nonaene-6-carbonitrile, 16-oxo-] | 60 to 80 | 10 to 30 | 30 to 60 | 30 to 60 | 10 to 30 | 10 to 30 | 10 to 30 | 30 to 60 | – | – | – | – | – | – | – | – | – | 10 to 30 | –
COc1ccc2cc1OCCNC(=O)[C@@H]1CCCN1Cc1cc(F)c(Cl)cc1Nc1nc(ncc1C#N)N2 [Compound 31, 21,17-metheno-15,11-nitrilo-16H-pyrrolo[2,1-r][13,1,5,7,16,19]benzoxapentaazacyclodocosine-12-carbonitrile, 8-chloro-7-fluoro-1,2,3,5,10,23,24,25,26,26a-decahydro-20-methoxy-26-oxo-, (26aS)-] | – | – | – | – | – | – | – | – | – | 2 (Score 2=30-60% inhibition) | 4 (Score 4=>80% inhibition) | 3 (Score 3=60-80% inhibition) | 2 (Score 2=30-60% inhibition) | – | 4 (Score 4=>80% inhibition) | 1 (Score 1=10-30% inhibition) | 2 (Score 2=30-60% inhibition) | – | 2 (Score 2=30-60% inhibition)
